Measured values: US6306860A, “2,5-pyridinedicarboxylic acid derivatives” (Dong Wha Pharm. Inc. Co., Ltd., priority 1998, dated 2001)

Legend:
HBV polymerase = biological target: T1, HBV polymerase (Hepatitis B virus genotype D subtype ayw, UniProt P03156); experiment: Inhibitory activities against HBV polymerase (reverse transcriptase activity) in vitro; type: biochemical; settings: read-out: Inhibitory activity of HBV-RT (%); for inhibition at 0.01 µg/mL: 0.01 μg/ml; for inhibition at 0.1 µg/mL: 0.1 μg/ml; for inhibition at 1 µg/mL: 1 μg/ml
T1 construct: made in house; host or cells: E. coli
Source text: Experiment 1:Inhibitory Activities Against HBV Polymerase in vitro
Recently, the inventors of the present invention have produced a recombinant HBV polymerase that is expressed from E.coli transformant, measured its enzyme activity and filed patent applications threrof [Korean Pat. Appl. Nos. 94-3918 and 96-33998].
The inventors have also established a method of measuring the reverse transcriptase activity of HBV polymerase in vitro. The fundamental principle is the same as the ELISA method, and after reacting the substrate with biotin- and DIG-modified nucleotide, a method of recognizing the polymerized substrate as anti-DIG antibody with peroxidase was used.
20 μl of HBV polymerase, 20 μl of reaction mixture and 20 μl of test compound was mixed and reacted at 14° C.~30° C. for 18~24 hours. Then, the inhibitory effect of the test compound against reverse transcriptase activity in the HBV polymerase was examined, compared with the results of control tests without the test compound.

[1] = biological target: T2, HIV reverse transcriptase (Human immunodeficiency virus type 1 group M subtype B, UniProt P04585); experiment: In vitro inhibition test against HIV reverse transcriptase; type: biochemical; settings: read-out: Inhibitory activity of HIV-RT (%); for inhibition at 0.1 µg/mL: 0.1 μg/ml; for inhibition at 1 µg/mL: 1 μg/ml
T2 construct: purchased Boehringer Mannheim
Experimental: Experiment 2: The in vitro Inhibition Test Against HIV Reverse Transcriptase
The inhibitory activity in vitro was measured using a non-radioactive reverse transcriptase assay Kit (Boehringer Mannheim).
At first, 20 μl(40 ng) of HIV-RT was added to the wells, coated with streptavidin and with the addition of 20 μl reaction mixture containing template/primer hybrid poly(A)/oligo(dT)15 and DIG-(digoxigenin)-dUTP, biotin-dUTP and TTP, 20 μl of test compound was added and reacted at 37° C. for 1 hour. The control without test compound was used for the comparison of related activity. Since DNA containing nucleotide labeled with digoxigenin and biotine was prepared by the action of HIV-RT, it was combined with streptavidin coated at the bottom of the wells. After the reaction was completed, remaining impurities were removed by washing each well with 250 μl buffer solution (pH 7.0) for 30 seconds 5 times and with the addition of 200 μl anti-DIG-POD antibody, the mixture was reacted at 37° C. for 1 hour. For the removal of remaining impurities again, the reacting solution was washed with a buffer solution and with the addition of 200 μl ABTS™ each, a substrate of POD(peroxidase), the solution was reacted at room temperature for 30 minutes. The absorbance was read by ELISA reader at 405 nm for the assay of reverse transcriptase activity and its inhibition activity.

T1 sequence (P03156 whole entry): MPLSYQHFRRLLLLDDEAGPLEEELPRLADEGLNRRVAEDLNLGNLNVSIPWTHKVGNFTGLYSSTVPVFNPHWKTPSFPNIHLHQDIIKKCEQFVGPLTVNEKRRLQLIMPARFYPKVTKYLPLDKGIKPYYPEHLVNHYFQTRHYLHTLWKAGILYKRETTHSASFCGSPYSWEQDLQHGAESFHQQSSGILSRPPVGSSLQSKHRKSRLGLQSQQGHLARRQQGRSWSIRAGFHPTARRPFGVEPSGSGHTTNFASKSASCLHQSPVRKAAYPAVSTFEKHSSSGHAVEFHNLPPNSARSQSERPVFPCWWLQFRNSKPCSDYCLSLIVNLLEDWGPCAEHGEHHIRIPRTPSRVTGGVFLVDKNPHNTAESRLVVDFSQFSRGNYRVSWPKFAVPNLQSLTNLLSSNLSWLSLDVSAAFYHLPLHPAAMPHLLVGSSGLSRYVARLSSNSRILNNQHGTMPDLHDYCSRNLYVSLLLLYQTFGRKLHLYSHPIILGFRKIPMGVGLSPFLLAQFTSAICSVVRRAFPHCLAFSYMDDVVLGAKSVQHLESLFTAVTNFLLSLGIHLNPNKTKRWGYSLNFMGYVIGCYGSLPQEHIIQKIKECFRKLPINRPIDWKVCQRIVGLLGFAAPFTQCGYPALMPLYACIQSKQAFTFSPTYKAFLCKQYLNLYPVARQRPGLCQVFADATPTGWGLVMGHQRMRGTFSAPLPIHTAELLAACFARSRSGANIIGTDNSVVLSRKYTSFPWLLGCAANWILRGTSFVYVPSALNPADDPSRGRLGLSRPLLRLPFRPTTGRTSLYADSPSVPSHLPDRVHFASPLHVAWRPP

Row | Compound | inhibition at 0.01 µg/mL (HBV polymerase) [%] | inhibition at 0.1 µg/mL (HBV polymerase) [%] | inhibition at 1 µg/mL (HBV polymerase) [%] | inhibition at 0.1 µg/mL [1] [%] | inhibition at 1 µg/mL [1] [%]
1 | CC(C)Nc1cccnc1N1CCN(C(=O)c2ccc(C(=O)NCCO)cn2)CC1 [Exam. 1, 5-[N-(2-hydroxyethyl)carbamoyl]-2-[1-[3-(isopropylamino)-2-pyridyl]piperazin-4-yl-carbonyl]pyridine] | 30 | 51 | 54 | – | –
2 | CC(C)Nc1cccnc1N1CCN(C(=O)c2ccc(C(=O)NCCCO)cn2)CC1 [Exam. 2, 5-[N-(3-Hydroxypropyl)carbamoyl]-2-[1-[3-(isopropylamino)-2-pyridyl]piperazine-4-yl-carbonyl]pyridine] | 49 | 60 | 71 | – | –
3 | CC(C)Nc1cccnc1N1CCN(C(=O)c2ccc(C(=O)N[C@H](C)CO)cn2)CC1 [Exam. 3, 5-[N-[(1R)-2-hydroxy-1-methylethyl]carbamoyl]-2-[1-[3-(isopropylamino)-2-pyridyl]piperazin-4-yl-carbonyl]pyridine] | 41 | 57 | 74 | – | –
4 | CC(C)Nc1cccnc1N1CCN(C(=O)c2ccc(C(=O)N[C@@H](C)CO)cn2)CC1 [Exam. 4, 5-[N-[(1S)-2-hydroxy-1-methylethyl]carbamoyl]-2-[1-[3-(isopropylamino)-2-pyridyl]piperazin-4-yl-carbonyl]pyridine] | 30 | 39 | 56 | – | –
5 | CC(C)Nc1cccnc1N1CCN(C(=O)c2ccc(C(=O)NC(C)(C)CO)cn2)CC1 [Exam. 6, 5-[N-(1,1-dimethyl-2-hydroxyethyl)carbamoyl]-2-[1-[3-(isopropylamino)-2-pyridyl]piperazin-4-yl-carbonyl]pyridine] | 62 | 65 | 80 | 48 | 70
6 | CC[C@H](CO)NC(=O)c1ccc(C(=O)N2CCN(c3ncccc3NC(C)C)CC2)nc1 [Exam. 7, 5-[N-[(1R)-1-ethyl-2-hydroxyethyl]carbamoyl]-2-[1-[3-(isopropylamino)-2-pyridyl]piperazin-4-yl-carbonyl]pyridine] | 53 | 64 | 70 | – | –
7 | CC(C)Nc1cccnc1N1CCN(C(=O)c2ccc(C(=O)NC(CO)CO)cn2)CC1 [Exam. 13, 5-[N-[Bis(hydroxymethyl)methyl]carbamoyl]-2-[1-[3-(isopropylamino)-2-pyridyl]piperazin-4-yl-carbonyl]pyridine] | 51 | 56 | 72 | 61 | 80
8 | CCN(CCO)C(=O)c1ccc(C(=O)N2CCN(c3ncccc3NC(C)C)CC2)nc1 [Exam. 14, 5-[N-ethyl-N-(2-hydroxyethyl)carbamoyl]-2-[1-[3-(isopropylamino)-2-pyridyl]piperazin-4-yl-carbonyl]pyridine] | – | 10 | 35 | – | –
9 | CC(C)Nc1cccnc1N1CCN(C(=O)c2ccc(C(=O)N(CCO)CCO)cn2)CC1 [Exam. 16, 5-[N,N-bis(2-hydroxyethyl)carbamoyl]-2-[1-[3-(isopropylamino)-2-pyridyl]piperazin-4-yl-carbonyl]pyridine] | 51 | 60 | 70 | 47 | 68
10 | CC(C)Nc1cccnc1N1CCN(C(=O)c2ccc(C(=O)N(CCO)c3ccccc3)cn2)CC1 [Exam. 17] | 42 | 53 | 66 | – | –
11 | CCNc1cccnc1N1CCN(C(=O)c2ccc(C(=O)NCCO)cn2)CC1 [Exam. 18, 2-[1-[3-(ethylamino)-2-pyridyl]piperazin-4-yl-carbonyl]-5-[N-(2-hydroxyethyl)carbamoyl]pyridine] | 52 | 69 | 84 | – | –
12 | CCNc1cccnc1N1CCN(C(=O)c2ccc(C(=O)NC(C)(C)CO)cn2)CC1 [Exam. 19, 5-[N-(1,1-dimethyl-2-hydroxyethyl)carbamoyl]-2-[1-[3-(ethylamino)-2-pyridyl]piperazin-4-yl-carbonyl]pyridine] | 32 | 56 | 72 | – | –
13 | Nc1cccnc1N1CCN(C(=O)c2ccc(C(=O)NCCO)cn2)CC1 [Exam. 20, 2-[1-(3-Amino-2-pyridyl)piperazine4-yl-carbonyl]-5-[N-(2-hydroxyethyl)carbamoyl]pyridine] | 54 | 67 | 74 | – | –
14 | CC(C)(CO)NC(=O)c1ccc(C(=O)N2CCN(c3ncccc3N)CC2)nc1 [Exam. 21, 2-[1-(3-amino-2-pyridyl)piperazin-4-yl-carbonyl]-5-[N-(1,1-dimethyl-2-hydroxyethyl)carbamoyl]pyridine] | 38 | 62 | 70 | – | –
15 | CC(C)CNc1cccnc1N1CCN(C(=O)c2ccc(C(=O)NCCO)cn2)CC1 [Exam. 22] | 54 | 60 | 86 | 50 | 60
16 | CC(C)CNc1cccnc1N1CCN(C(=O)c2ccc(C(=O)NC(C)(C)CO)cn2)CC1 [Exam. 23, 5-[N-(1,1-dimethyl-2-hydroxyethyl)carbamoyl]-2-[1-[3-(isobutylamino)-2-pyridyl]piperazin-4-yl-carbonyl]pyridine] | 63 | 71 | 90 | 46 | 62
17 | CC(C)NC(=O)c1ccc(C(=O)N2CCN(c3ncccc3NC(C)C)CC2)nc1 [Exam. 24, 2-[1-[3-(isopropylamino)-2-pyridyl]piperazin-4-yl-carbonyl]-5-(N-isopropylcarbamoyl)pyridine] | 23 | 51 | 65 | 30 | 66
18 | CCNc1cccnc1N1CCN(C(=O)c2ccc(C(=O)NC(C)C)cn2)CC1 [Exam. 25, 2-[1-[3-(ethylamino)-2-pyridyl]piperazin-4-yl-carbonyl]-5-(N-isopropylcarbamoyl)pyridine] | 54 | 67 | 85 | 52 | 75
19 | CC(C)CNc1cccnc1N1CCN(C(=O)c2ccc(C(=O)NC(C)C)cn2)CC1 [Exam. 26, 2-[1-[3-(isobutylamino)-2-pyridyl]piperazin-4-yl-carbonyl]-5-(N-isopropylcarbamoyl)pyridine] | 58 | 66 | 90 | 45 | 60
20 | CC(C)NC(=O)c1ccc(C(=O)N2CCN(c3ncccc3N)CC2)nc1 [Exam. 27, 2-[1-(3-amino-2-pyridyl)piperazin-4-yl-carbonyl]-5-(N-isopropylcarbamoyl)pyridine] | 43 | 62 | 79 | 54 | 70
21 | CC(C)Nc1cccnc1N1CCN(C(=O)c2ccc(C(=O)NC(C)(C)C)cn2)CC1 [Exam. 28, 5-[N-(1,1-dimethylethyl)carbamoyl]-2-[1-[3-(isopropylamino)-2-pyridyl]piperazin-4-yl-carbonyl]pyridine] | 61 | 72 | 88 | 45 | 55
22 | CC(C)CNC(=O)c1ccc(C(=O)N2CCN(c3ncccc3NC(C)C)CC2)nc1 [Exam. 30, 2-[1-[3-(isopropylamino)-2-pyridyl]piperazin-4-yl-carbonyl]-5-[N-(2-methylpropyl)carbamoyl]pyridine] | 61 | 65 | 83 | 32 | 58
23 | CC(C)CNc1cccnc1N1CCN(C(=O)c2ccc(C(=O)Nc3ncccc3O)cn2)CC1 [Exam. 86] | 13 | 46 | 71 | – | –
